# Test results: US6573284B1, “Method of treating melanoma” (priority 1996, dated 2003)
# “Also recorded” adds a separate entry of the source.
# Columns and labels:
# mushroom tyrosinase = assay: Oximetry: oxidation of substrates by tyrosinase; format: biochemical; conditions: 100 μM substrate, 165 units of tyrosinase/ml, room temperature; compared with tyrosine
# [1] = tested on: human melanoma (C32, G361 and STMl1la) and nonmelanoma derived cell lines (Caki-2 and CHO); format: cell-based
# tyrosinase = assay: Release of drug from prodrug upon treatment with tyrosinase (TLC, GCMS); format: biochemical; conditions: DMSO/phosphate buffer pH 7.2, 25° C., 1 hour; TLC and GCMS
compound,measurement,setting,value
"O=C(NCCc1ccc(O)c(O)c1)Oc1ccc(N(CCCl)CCCl)cc1 [Compound A, N-(N-bis-chlorethyl-4-amino-phenyloxycarbonyl)-3-hydroxy-tyramine]",oxidation by tyrosinase (utilization of oxygen with respect to time),mushroom tyrosinase,"oxidised by tyrosinase, although the rate of the reaction was lower than for the normal substrate"
same,melting point,,80 °C (dec.)
same,relative toxicity (inverse of the IC50),[1],relatively non-toxic; also recorded: increasing toxicity with tyrosinase activity
NCCc1ccc(O)c(O)c1 [Compound B],relative toxicity (inverse of the IC50),[1],essentially non-toxic
"COc1ccc(O)cc1 [4-Hydroxyanisole, 4-hydroxyanisole]",oxidation by tyrosinase (utilization of oxygen with respect to time),mushroom tyrosinase,"oxidised, but at a lower rate than tyrosine"
CC(=O)N[C@@H](Cc1ccc(O)cc1)C(=O)O [N-acetyl tyrosine],oxidation by tyrosinase (utilization of oxygen with respect to time),mushroom tyrosinase,"oxidised, but at a lower rate than tyrosine"
O=C(NCCc1ccc(O)cc1)Oc1ccc(N(CCCl)CCCl)cc1 [Prodrug (1)],release of mustard drug upon tyrosinase treatment,tyrosinase,a component of identical Rf to the authentic mustard drug had been produced
